Experimental data reported in US8772303B2, “Pharmaceutical formulation” (Glaxo Group Limited, priority 2004, dated 2014).

Experiments:
[1] = Measurement of the substituted uracil formula (II) in simulated gastric fluid (hydrolysis of active); assay type: physicochemical; settings: for Levels of Formula (II) in simulated gastric fluid: 60 mg active in 250 mL SGF, 37° C., 50 rpm
From the text: Compounds of Formula (I) hydrolyse, particularly under conditions where pH corresponds to that typically prevailing in the human stomach, to form a thiol and a uracil in a 1:1 stoichiometric ratio. The thiol has a smell characteristic of compounds of its class, the intensity of the smell increasing with the concentration of the thiol. Thus the concentration of the uracil is a surrogate marker for the intensity of the smell.
To simulate in vitro the effect of enteric-coating on the propensity of 1-(N-(2-(Diethylamino)ethyl)-N-(4-(4-trifluoromethylphenyl)benzyl)aminocarbonylmethyl)-2-(4-fluorobenzyl)thio-5,6-trimethylenepyrimidin-4-one as the free base (called “active” in this example) to give rise to abnormal smells in vivo, a two-armed study was performed. In both arms, 60 mg of active was immersed in 250 mL simulated gastric fluid held at 37° C. and stirred at 50 rpm in a USP2 dissolution apparatus. In one arm, the active was present as an enteric-coated tablet. In the other arm, active was present as the unformulated drug substance, which is chemically equivalent to a tablet lacking an enteric coat.
The uracil produced by the active is N-[2-(diethylamino)ethyl]-2-(2,4-dioxo-2,3,4,5,6,7-hexahydro-1H-cyclopenta[d]pyrimidin-1-yl)-N-{[4′-(trifluoromethyl)-4-biphenylyl]methyl}acetamide, as shown in Formula (II): […]
In both arms, the level of formula (II) in solution was monitored over time, by withdrawing a small sample of the fluid and comparing its LC-MS response to that of a matrix-matched external standard (i.e. synthetic formula (II)).

[2] = Measurement of the substituted uracil formula (II) in simulated intestinal fluid (hydrolysis of active); assay type: physicochemical; settings: for Levels of formula (II) in simulated intestinal fluid: 80 mg active in 250 mL fasted-state SIF, 37° C., 50 rpm
Description: To simulate in vitro the propensity of active tablets to give rise to abnormal smells in the human intestine, active equivalent to 80 mg was immersed in 250 mL simulated intestinal fluid (corresponding to the fasted state in humans) held at 37° C. and stirred at 50 rpm in a USP2 dissolution apparatus. This is chemically equivalent to a tablet whose enteric coat has been destroyed and whose core has subsequently disintegrated.
The level of formula (II) in solution was monitored over time, by withdrawing a small sample of the fluid and comparing its LC-MS response to that of a matrix-matched external standard (i.e. synthetic formula (II)).

CCN(CC)CCN(Cc1ccc(-c2ccc(C(F)(F)F)cc2)cc1)C(=O)Cn1c(SCc2ccc(F)cc2)nc(=O)c2c1CCC2 [Unformulated drug, 1-(N-(2-(Diethylamino)ethyl)-N-(4-(4-trifluoromethylphenyl)benzyl)aminocarbonylmethyl)-2-(4-fluorobenzyl)thio-5,6-trimethylenepyrimidin-4-one]
Levels of Formula (II) in simulated gastric fluid ([1]; 0 min, QL 1.71 ng/mL): 6270 ng/mL
Levels of Formula (II) in simulated gastric fluid ([1]; 5 min, QL 1.71 ng/mL): 6570 ng/mL
Levels of Formula (II) in simulated gastric fluid ([1]; 10 min, QL 1.71 ng/mL): 7180 ng/mL
Levels of Formula (II) in simulated gastric fluid ([1]; 15 min, QL 1.71 ng/mL): 7970 ng/mL
Levels of Formula (II) in simulated gastric fluid ([1]; 30 min, QL 1.71 ng/mL): 9270 ng/mL
Levels of Formula (II) in simulated gastric fluid ([1]; 45 min, QL 1.71 ng/mL): 11450 ng/mL
Levels of Formula (II) in simulated gastric fluid ([1]; 60 min): 13110 ng/mL
Levels of Formula (II) in simulated gastric fluid ([1]; 120 min): 18940 ng/mL
Levels of Formula (II) in simulated gastric fluid ([1]; 240 min): 25250 ng/mL
Levels of Formula (II) in simulated gastric fluid ([1]; 480 min): 62910 ng/mL
Levels of Formula (II) in simulated gastric fluid ([1]; 1440 min): 135600 ng/mL
Reduction by the enteric coat of the level of formula (II) formed by active ([1]; simulated gastric fluid, enteric coated tablet versus unformulated drug): 4 orders of magnitude
Levels of formula (II) in simulated intestinal fluid ([2]; 480 min): 2.99 ng/mL
Levels of formula (II) in simulated intestinal fluid ([2]; 1440 min): 8.58 ng/mL
Propensity to form formula (II) in simulated intestinal fluid ([2]; in contrast to behaviour in simulated gastric fluid): low propensity
